Measurements taken from publication PMC11278298, “Generation, Characterisation and Identification of Bioactive Peptides from Mesopelagic Fish Protein Hydrolysates Using In Silico and In Vitro Approaches” (Marine Drugs, 2024).
Blank lines part the entries; values can stand above or below the compound they belong to. Residues, ends and D or L forms follow the SMILES beside them.

Key:
ovine COX-1 enzyme = biological target: T1, ovine COX-1 enzyme (Ovis aries, UniProt P05979); experiment: COX colourimetric inhibition screening assay, COX-1; format: biochemical; conditions: synthesised peptide
T1 construct: purchased Cayman Chemicals 701050
T1 sequence (P05979 25-600): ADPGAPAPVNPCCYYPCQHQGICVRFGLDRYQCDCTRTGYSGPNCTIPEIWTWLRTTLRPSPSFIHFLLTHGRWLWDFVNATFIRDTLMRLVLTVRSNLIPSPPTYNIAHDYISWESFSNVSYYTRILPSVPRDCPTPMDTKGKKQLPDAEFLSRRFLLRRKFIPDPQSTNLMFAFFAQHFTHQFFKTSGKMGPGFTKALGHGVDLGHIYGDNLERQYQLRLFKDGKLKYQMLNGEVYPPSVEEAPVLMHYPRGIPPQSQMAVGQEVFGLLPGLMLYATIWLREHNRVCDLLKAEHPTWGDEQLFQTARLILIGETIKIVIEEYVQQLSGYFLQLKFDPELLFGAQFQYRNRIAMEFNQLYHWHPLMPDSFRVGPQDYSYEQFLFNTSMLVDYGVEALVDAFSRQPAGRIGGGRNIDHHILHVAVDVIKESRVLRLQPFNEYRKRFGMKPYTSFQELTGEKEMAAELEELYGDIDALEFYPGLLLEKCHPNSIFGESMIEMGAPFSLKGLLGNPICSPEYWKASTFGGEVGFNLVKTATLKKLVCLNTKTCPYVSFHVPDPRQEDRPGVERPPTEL
Procedure: The anti-pain and anti-inflammatory bioactivities of generated mesopelagic hydrolysates and permeates were assessed using a cyclooxygenase inhibition assay, targeting human COX-2 and ovine COX-1 enzymes, as described previously. COX (Prostaglandin H synthase) inhibition plays a positive role in the prevention of a variety of health conditions, and COX inhibitors have documented analgesic, anti-inflammatory, and antipyretic properties. They can influence pain and inflammation related to diseases like osteoarthritis and rheumatoid arthritis, musculoskeletal injury, migraines, and cancer. COX inhibitors are indicated for mild pain and are usually prescribed for short durations of time to patients. […] COX inhibition was calculated using the following Equation:% COX inhibition = (Corrected 100% initial activity − Corrected Inhibitor activity)/(Corrected 100% initial activity) × 100(1) where Corrected 100% initial activity was the absorbance value recorded for wells containing 150 µL 1× assay Buffer, 10 µL of either COX-1 or COX-2 enzyme and 10 µL of solvent (DMSO) minus the absorbance value recorded for the background well containing 160 µL of 1× Assay Buffer and 10 µL of solvent.

human COX-2 enzyme = biological target: T2, human COX-2 enzyme (Homo sapiens, UniProt P35354); experiment: COX colourimetric inhibition screening assay, COX-2; format: biochemical; conditions: for IC50 / inhibition at 1000 µg/mL: synthesised peptide; for inhibition at 1000 µg/mL: 1 mg/mL
T2 construct: purchased Cayman Chemicals 701050
T2 sequence (P35354 18-604): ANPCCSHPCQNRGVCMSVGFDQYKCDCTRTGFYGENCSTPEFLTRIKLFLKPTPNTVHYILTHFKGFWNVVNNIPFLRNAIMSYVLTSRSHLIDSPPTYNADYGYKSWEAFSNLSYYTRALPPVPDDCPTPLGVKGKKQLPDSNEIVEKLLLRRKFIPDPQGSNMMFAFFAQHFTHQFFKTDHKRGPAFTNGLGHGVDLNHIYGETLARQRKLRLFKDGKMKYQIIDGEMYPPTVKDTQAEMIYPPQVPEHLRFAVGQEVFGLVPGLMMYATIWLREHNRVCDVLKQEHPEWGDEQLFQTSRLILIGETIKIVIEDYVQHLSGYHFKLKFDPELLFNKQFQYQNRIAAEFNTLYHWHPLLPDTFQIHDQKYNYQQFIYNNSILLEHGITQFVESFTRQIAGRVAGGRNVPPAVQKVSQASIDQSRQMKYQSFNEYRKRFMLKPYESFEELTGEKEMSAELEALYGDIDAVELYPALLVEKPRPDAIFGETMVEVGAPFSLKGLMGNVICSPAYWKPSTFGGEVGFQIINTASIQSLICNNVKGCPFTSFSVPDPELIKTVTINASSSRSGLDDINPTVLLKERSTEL
Procedure: The anti-pain and anti-inflammatory bioactivities of generated mesopelagic hydrolysates and permeates were assessed using a cyclooxygenase inhibition assay, targeting human COX-2 and ovine COX-1 enzymes, as described previously. […] They can influence pain and inflammation related to diseases like osteoarthritis and rheumatoid arthritis, musculoskeletal injury, migraines, and cancer. COX inhibitors are indicated for mild pain and are usually prescribed for short durations of time to patients.

MAGL enzyme = biological target: T3, MAGL enzyme (Homo sapiens, UniProt Q99685); experiment: Monoacylglycerol lipase inhibition screening assay; format: biochemical
T3 construct: purchased Cayman
T3 sequence (Q99685 1-303): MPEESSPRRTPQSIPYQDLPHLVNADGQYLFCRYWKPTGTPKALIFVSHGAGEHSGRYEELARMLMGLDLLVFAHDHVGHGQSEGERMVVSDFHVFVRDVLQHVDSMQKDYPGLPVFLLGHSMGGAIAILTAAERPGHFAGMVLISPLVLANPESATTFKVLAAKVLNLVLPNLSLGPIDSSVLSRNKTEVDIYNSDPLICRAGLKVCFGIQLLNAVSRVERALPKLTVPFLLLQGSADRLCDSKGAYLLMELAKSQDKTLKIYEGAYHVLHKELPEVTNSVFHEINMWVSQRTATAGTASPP
From the text: Monoacylglycerol lipase (MAGL) is a serine hydrolase that catalyses the hydrolysis of monoglycerides into glycerol and fatty acids and links the endocannabinoid and eicosanoid systems through degradation of 2-arachidaoylglycerol to arachidonic acid, a precursor of prostaglandins and other inflammatory mediators. MAGL inhibitors can have anti-nociceptive, anxiolytic, anti-inflammatory and even anti-cancer benefits. The Cayman’s Monoacylglycerol lipase inhibition screening assay kit was used to measure the inhibition of MAGL by generated hydrolysates and the positive control JZL 195 inhibitor. The assay was performed in compliance with the manufacturer’s instructions. MAGL hydrolyses 4-Nitrophenylacetate, resulting in a yellow product, 4-nitrophenol, that has an absorbance between 405–412 nm. The […] of the yellow colour is indicative of MAGL inhibition. MAGL inhibition was calculated using the following Equation:% MAGL inhibition = (corrected 100% initial activity − corrected inhibitor activity)/(corrected 100% initial activity) × 100(2) where corrected 100% initial activity was the absorbance value recorded for wells containing 150 µL 1× assay Buffer, 10 µL of MAGL enzyme and 10 µL of solvent minus the absorbance value recorded for the background well containing 160 µL of 1× Assay Buffer and 10 µL of solvent (1.4% DMSO in water).

COX-1 = test system: COX-1; parameters: method as in PMID 20188172; conditions: known COX-1 selective inhibitors from Chinese herbs; cited from earlier work
COX-2 = test system: COX-2; parameters: method as in PMID 20188172; conditions: known COX-2 selective inhibitors; read-out: COX2- IC50; cited from earlier work
LOX-1 expression = test system: LOX-1 expression; parameters: method as in PMID 30955604; conditions: peptides from amaranth; cited from earlier work
[1] = test system: nitric oxide (NO) production; parameters: method as in doi:10.48022/mbl.2109.09005; conditions: peptide from mollusc abalone; cited from earlier work

IC50 (ovine COX-1 enzyme): 103 µM | inhibition at 1000 µg/mL (ovine COX-1 enzyme; 1 mg/mL): 53.3% | selectivity index (human COX-2 enzyme; COX-1 versus COX-2 IC50 of synthesised peptide): 0.52 | IC50 (human COX-2 enzyme): 366 µM | inhibition at 1000 µg/mL (human COX-2 enzyme): 47.5%
Compound: CC[C@H](C)[C@H](N)C(=O)N[C@@H](C)C(=O)NCC(=O)N[C@@H](Cc1ccccc1)C(=O)N[C@@H](CCC(=O)O)C(=O)N[C@H](C(=O)N[C@@H](Cc1ccccc1)C(=O)N[C@@H](CC(=O)O)C(=O)N[C@@H](Cc1ccccc1)C(=O)N[C@@H](CC(N)=O)C(=O)N[C@@H](CO)C(=O)N[C@@H](CC(C)C)C(=O)N[C@@H](CCC(=O)O)C(=O)N[C@@H](CCC(N)=O)C(=O)N[C@@H](CC(C)C)C(=O)N[C@@H](CS)C(=O)O)[C@@H](C)CC (H-IAGFEIFDFNSLEQLC-OH)

IC50 (MAGL enzyme; synthesised peptide): 6.35 µM | inhibition at 500 µg/mL (MAGL enzyme; synthesised peptide, 0.5 mg/mL): 53%
Compound: CC[C@H](C)[C@H](NC(=O)[C@H](CC(C)C)NC(=O)[C@H](C)NC(=O)[C@H](CCC(=O)O)NC(=O)[C@@H]1CCCN1C(=O)[C@H](CC(C)C)NC(=O)CNC(=O)[C@H](CC(C)C)NC(=O)[C@H](C)NC(=O)[C@H](C)NC(=O)[C@@H](NC(=O)[C@H](CC(C)C)NC(=O)[C@H](Cc1ccccc1)NC(=O)[C@@H](NC(=O)[C@H](CS)NC(=O)[C@@H](NC(=O)[C@@H](NC(=O)[C@H](CCC(=O)O)NC(=O)CNC(=O)[C@@H](NC(=O)[C@@H](N)CC(N)=O)C(C)C)C(C)C)C(C)C)[C@@H](C)CC)[C@@H](C)O)C(=O)O (H-NVGEVVCIFLTAALGLPEALI-OH)

inhibition at 500 µg/mL (ovine COX-1 enzyme; 0.5 mg/mL): 53.7%
Compound: CSCC[C@H](NC(=O)[C@H](Cc1ccccc1)NC(=O)[C@H](CCC(N)=O)NC(=O)[C@H](Cc1ccc(O)cc1)NC(=O)[C@H](C)NC(=O)[C@H](CC(N)=O)NC(=O)[C@H](CC(=O)O)NC(=O)[C@@H](N)CO)C(=O)N[C@@H](CC(C)C)C(=O)N[C@H](C(=O)O)[C@@H](C)O (H-SDNAYQFMLT-OH)

Compound: CC(=O)O[C@@H]1CC[C@@]2(C)[C@@H](CC[C@]3(C)[C@@H]2C(=O)C=C2[C@@H]4[C@@H](C)[C@H](C)CC[C@]4(C)CC[C@]23C)[C@@]1(C)C(=O)O [Acetyl-11-keto-β-boswellic acid]
IC50 (COX-1): ~10 µM

Compound: O=C(Oc1ccc([N+](=O)[O-])cc1)N1CCN(Cc2cccc(Oc3ccccc3)c2)CC1 [JZL 195, reference compound]
% MAGL inhibition (MAGL enzyme; positive control at 4.4 µM): 98.16%

% COX-1 inhibition (ovine COX-1 enzyme; concentration not printed with the value): 82.90% (+/−0.54) | IC50 (human COX-2 enzyme): 221 µM | inhibition at 1000 µg/mL (human COX-2 enzyme): 53.8%
Compound: CC(C)C[C@H](NC(=O)[C@H](C)NC(=O)[C@H](Cc1c[nH]c2ccccc12)NC(=O)[C@@H]1CCCN1C(=O)[C@H](CCCNC(=N)N)NC(=O)[C@H](Cc1c[nH]cn1)NC(=O)[C@H](CC(C)C)NC(=O)[C@@H]1CCCN1C(=O)[C@H](CS)NC(=O)[C@@H](N)CCC(N)=O)C(=O)O [QCPLHRPWAL] (H-QCPLHRPWAL-OH)

Compound: CCC/C=C1\OC(=O)C2=C1CC[C@H]1[C@H]3C=C4C(=O)O/C(=C\CCC)[C@@]4(CC3)[C@@H]21 [Senkyunolide O]
IC50 (COX-2): 5 µM

Compound: CC(=O)O[C@@H]1CC[C@@]2(C)[C@@H](CC[C@]3(C)[C@@H]2CC=C2[C@@H]4CC(C)(C)CC[C@]4(C)CC[C@]23C)[C@@]1(C)C(=O)O [acetyl-α-boswellic acid]
IC50 (COX-1): ~10 µM

Compound: CC(=O)O[C@@H]1CC[C@@]2(C)[C@@H](CC[C@]3(C)[C@@H]2CC=C2[C@@H]4[C@@H](C)[C@H](C)CC[C@]4(C)CC[C@]23C)[C@@]1(C)C(=O)O [acetyl-β-boswellic acid]
IC50 (COX-1): ~10 µM

Compound: C[C@H]1COC2=C1C(=O)C(=O)c1c2ccc2c1CCCC2(C)C [cryptotanshinone]
IC50 (COX-2): 22 µM

Compound: C[C@H]1[C@H](C)CC[C@]2(C)CC[C@]3(C)C(=CC[C@@H]4[C@@]5(C)CC[C@@H](O)[C@](C)(C(=O)O)[C@@H]5CC[C@]43C)[C@H]12 [β-boswellic acid]
IC50 (COX-1): ~10 µM

% COX-1 inhibition (ovine COX-1 enzyme; 0.5 mg/mL): 34.49%
Compound: FDAFLPM [peptide from Irish M. muelleri Alcalase hydrolysate (Code 23), chemically synthesised]

Compound: HGSEPFGPR [literature anti-inflammatory peptide from amaranth]
effect on LOX-1 expression (LOX-1 expression): reduce LOX-1 expression

Compound: PFNEGTFAAS [literature peptide derived from mollusc abalone]
NO IC50 [1]: 54.07 µg/mL

Compound: RPRYPWRYT [literature anti-inflammatory peptide from amaranth]
effect on LOX-1 expression (LOX-1 expression): reduce LOX-1 expression
